Data set [1] deals with T1, Solute carrier family 22 member 1 (Mus musculus, UniProt O08966).
T1 sequence (O08966 whole entry): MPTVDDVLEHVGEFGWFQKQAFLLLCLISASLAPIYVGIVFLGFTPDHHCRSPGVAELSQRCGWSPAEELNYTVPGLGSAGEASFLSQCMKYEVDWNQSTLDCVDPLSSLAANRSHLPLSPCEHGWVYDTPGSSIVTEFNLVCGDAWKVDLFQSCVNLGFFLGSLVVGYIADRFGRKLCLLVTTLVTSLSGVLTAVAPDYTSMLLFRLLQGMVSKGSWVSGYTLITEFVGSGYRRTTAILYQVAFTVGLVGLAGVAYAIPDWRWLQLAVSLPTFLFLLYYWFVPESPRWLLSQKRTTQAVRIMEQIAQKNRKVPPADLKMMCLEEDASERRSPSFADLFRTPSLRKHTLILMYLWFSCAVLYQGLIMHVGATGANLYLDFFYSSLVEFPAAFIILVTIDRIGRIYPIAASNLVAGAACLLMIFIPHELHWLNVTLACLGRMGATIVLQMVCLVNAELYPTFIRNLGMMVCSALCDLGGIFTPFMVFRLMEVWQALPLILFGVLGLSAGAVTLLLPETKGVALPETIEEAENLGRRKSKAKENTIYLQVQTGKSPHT
Briefly: in vitro. The settings on record: xenopus laevis, probe TEA (140 uM).

Data set [2] concerns the target T1, Solute carrier family 22 member 1. As to the kind of experiment: TP_TRANSPORTER: inhibition of TEA uptake (TEA: 140 uM, Procainamide: 10000 uM) in Xenopus laevis oocytes. In kind it is functional, cell-based, Oocyte. On the set-up: scale not given: the % may be the effect or the level left. The settings on record: probe TEA (140 uM), read-out: Activity.
Substrate in data set [3]: CC[N+](CC)(CC)CC
As to the kind of experiment: cells, lysate or membranes named.

The results in this text go back to ChEMBL document CHEMBL2073926, “Cloning and functional expression of a mouse liver organic cation transporter” (Hepatology, 1999).

By Km is commonly meant the concentration of substrate that gives half-maximal velocity.

Regarding `Cc1ncc(C[n+]2csc(CCO)c2C)c(N)n1` [THIAMINE ION], the activity at 1000 µM in data set [1] is 12.7%.
Take `CCN(CC)CCNC(=O)c1ccc(N)cc1` [PROCAINAMIDE]: the activity at 10000 uM in data set [2] was 30.1%.

B1: Solute carrier family 22 member 1 (Mus musculus) (protein)
chain: T1 sequence (O08966 whole entry)
Regarding B1, the Km in data set [3] is 38 µM.
